Source: patent US11000033B2, “Ketone or oxime compound, and herbicide” (NISSAN CHEMICAL CORPORATION, priority 2014, dated 2021)

What was measured:
Assay type in all cases: in vivo
Veronica persica = test: Test Example 4: herbicidal effect by soil treatment (symbol R); conditions: 320 g/ha
Procedure, shortened: (§1)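 Seeds were sown in sterilized diluvial soil, covered with about 1.5 cm of soil, and the soil surface was sprayed with a water-diluted emulsion of the compound at a predetermined rate. Plants grew in a greenhouse at 25° C. to 30° C.; effects were scored visually 3 weeks after application.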

Monochoria vaginalis = test: Test Example 2: herbicidal activity, application during weed generation in submerged conditions (symbol C); conditions: Table 23; application herbicide amount 320 g/ha; grade 0-5 by criteria of Test Example 1
Procedure, shortened: (§2)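 Submerged alluvial soil (4 cm) sown with mixed seed; greenhouse 25–30° C. 1–2 leaf: diluted emulsion onto water surface, preset dose. Visual score, 3 wk.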

[1] = system: Echinochloa oryzacola Vasing.; test: Test Example 2: herbicidal activity, application during weed generation in submerged conditions (symbol A); conditions: Table 23; application herbicide amount 320 g/ha; grade 0-5 by criteria of Test Example 1
Procedure, shortened: as §2

Avena fatua = test: Test Example 4: herbicidal effect by soil treatment (symbol I); conditions: 320 g/ha
Procedure, shortened: as §1

Amaranthus retroflexus = test: Test Example 5: herbicidal effect by foliage application, plastic box (symbol N); conditions: 320 g/ha, 3 weeks after application
Procedure, shortened: (§3)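 After sowing into sterilized diluvial soil and growing two weeks under glass at 25° C. to 30° C., seedlings receive a uniform foliar spray of diluted emulsion. Damage is judged visually three weeks on.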

Setaria viridis = test: Test Example 4: herbicidal effect by soil treatment (symbol G); conditions: 320 g/ha
Procedure, shortened: as §1

Scirpus juncoides = test: Test Example 2: herbicidal activity, application during weed generation in submerged conditions (symbol B); conditions: Table 23; application herbicide amount 320 g/ha; grade 0-5 by criteria of Test Example 1
Procedure, shortened: as §2

wheat = test: Test Example 4: effect on crop by soil treatment (symbol e); conditions: 320 g/ha
Procedure, shortened: (§4)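 Steps: fill box with sterilized diluvial soil; sow seed spot-like; cover with ~1.5 cm soil; grow in greenhouse (25° C. to 30° C.).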

rice plant = test: Test Example 5: effect on crop by foliage application, plastic box (symbol b); conditions: 320 g/ha, 3 weeks after application
Procedure, shortened: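 In a plastic box 7 cm deep filled with sterilized diluvial soil, seeds of crops and weeds such as Digitaria ciliaris, Avena fatua and Amaranthus retroflexus are sown in spots and covered with about 1.5 cm of soil before greenhouse growth at 25–30° C.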

Digitaria ciliaris = test: Test Example 4: herbicidal effect by soil treatment (symbol F); conditions: 320 g/ha
Procedure, shortened: as §1

rice = test: Test Example 4: effect on crop by soil treatment (symbol b); conditions: 320 g/ha
Procedure, shortened: as §4

Stellaria media [2] = test: Test Example 4: herbicidal effect by soil treatment (symbol P); conditions: 320 g/ha
Procedure, shortened: as §1

Alopecurus myosuroides [3] = test: Test Example 5: herbicidal effect by foliage application, plastic box (symbol J); conditions: 320 g/ha, 3 weeks after application
Procedure, shortened: as §3

Stellaria media [4] = test: Test Example 5: herbicidal effect by foliage application, plastic box (symbol P); conditions: 320 g/ha, 3 weeks after application
Procedure, shortened: as §3

Chenopodium album = test: Test Example 5: herbicidal effect by foliage application, plastic box (symbol O); conditions: 320 g/ha, 3 weeks after application
Procedure, shortened: as §3

Lolium multiflorum Lam. = test: Test Example 4: herbicidal effect by soil treatment (symbol K); conditions: 320 g/ha
Procedure, shortened: as §1

Leptochloa chinensis = test: Test Example 3: herbicidal effect by foliage application, Wagner pot (symbol D); conditions: application herbicide amount 320 g/ha
Procedure, shortened: (§5)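 Steps: fill pot with alluvial soil; add water to 0.1–0.5 cm depth; sow weed and rice seed; grow 14 days at 25–30 °C; spray diluted emulsion over the leaves; rate effect after 3 weeks.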

[5] = system: Echinochloa crus-galli var. crus-galli; test: Test Example 5: herbicidal effect by foliage application, plastic box (symbol H); conditions: 320 g/ha, 3 weeks after application
Procedure, shortened: as §3

Alopecurus myosuroides [6] = test: Test Example 4: herbicidal effect by soil treatment (symbol J); conditions: 320 g/ha
Procedure, shortened: as §1

[7] = system: Echinochloa crus-galli var. crus-galli; test: Test Example 3: herbicidal effect by foliage application, Wagner pot (symbol H); conditions: application herbicide amount 320 g/ha
Procedure, shortened: as §5

| Structure (SMILES) | R: Veronica persica, herbicidal effect grade (Veronica persica) | Herbicidal effect grade, C: Monochoria vaginalis (Monochoria vaginalis) | Herbicidal effect grade, A: Echinochloa oryzacola Vasing. [1] | I: Avena fatua, herbicidal effect grade (Avena fatua) | N: Amaranthus retroflexus, herbicidal effect (criteria 0-5) (Amaranthus retroflexus) | G: Setaria viridis, herbicidal effect grade (Setaria viridis) | Herbicidal effect grade, B: Scirpus juncoides (Scirpus juncoides) | e: wheat, effect grade on crop (wheat) | b: directly sowed rice plant, effect on crop (criteria 0-5) (rice plant) | F: Digitaria ciliaris, herbicidal effect grade (Digitaria ciliaris) | b: directly sowed rice plant, effect grade on crop (rice) | P: Stellaria media, herbicidal effect grade (Stellaria media [2]) | J: Alopecurus myosuroides, herbicidal effect (criteria 0-5) (Alopecurus myosuroides [3]) | P: Stellaria media, herbicidal effect (criteria 0-5) (Stellaria media [4]) | O: Chenopodium album, herbicidal effect (criteria 0-5) (Chenopodium album) | K: Lolium multiflorum Lam., herbicidal effect grade (Lolium multiflorum Lam.) | herbicidal effect on D (Leptochloa chinensis), grade 0-5 (Leptochloa chinensis) | H: Echinochloa crus-galli var. crus-galli, herbicidal effect (criteria 0-5) [5] | J: Alopecurus myosuroides, herbicidal effect grade (Alopecurus myosuroides [6]) | herbicidal effect on H (Echinochloa crus-galli var. crus-galli), grade 0-5 [7] |
| --- | --- | --- | --- | --- | --- | --- | --- | --- | --- | --- | --- | --- | --- | --- | --- | --- | --- | --- | --- | --- |
| CON=C(C)CC1CC(OC(=O)N2CCOCC2)=C(c2c(C)cc(C)cc2C)C1=O (stereo not drawn) [1-104] | 0 (Herbicidal ratio of 5% or lower (almost no effect)) | 0 (Herbicidal ratio of 5% or lower (almost no effect)) | 5 (Herbicidal ratio of 90% or more (almost completely withered)) | 3 (Herbicidal ratio of 40% or higher and lower than 70%) | 0 (Herbicidal ratio of 5% or lower (almost no effect)) | 5 (Herbicidal ratio of 90% or more (almost completely withered)) | 4 (Herbicidal ratio of 70% or higher and lower than 90%) | 1 (Herbicidal ratio of 5% or higher and lower than 20%) | 5 (Herbicidal ratio of 90% or more (almost completely withered)) | 5 (Herbicidal ratio of 90% or more (almost completely withered)) | 5 (Herbicidal ratio of 90% or more (almost completely withered)) | 0 (Herbicidal ratio of 5% or lower (almost no effect)) | 5 (Herbicidal ratio of 90% or more (almost completely withered)) | 1 (Herbicidal ratio of 5% or higher and lower than 20%) | 2 (Herbicidal ratio of 20% or higher and lower than 40%) | 5 (Herbicidal ratio of 90% or more (almost completely withered)) | 5 (Herbicidal ratio of 90% or more (almost completely withered)) | 5 (Herbicidal ratio of 90% or more (almost completely withered)) | 5 (Herbicidal ratio of 90% or more (almost completely withered)) | 5 (Herbicidal ratio of 90% or more (almost completely withered)) |
| CON=C(C)CON=C(C)CC1CC(O)=C(c2c(C)cc(C)cc2C)C1=O (stereo not drawn) [1-105] | 0 (Herbicidal ratio of 5% or lower (almost no effect)) | 3 (Herbicidal ratio of 40% or higher and lower than 70%) | 5 (Herbicidal ratio of 90% or more (almost completely withered)) | 1 (Herbicidal ratio of 5% or higher and lower than 20%) | 0 (Herbicidal ratio of 5% or lower (almost no effect)) | 5 (Herbicidal ratio of 90% or more (almost completely withered)) | 5 (Herbicidal ratio of 90% or more (almost completely withered)) | 3 (Herbicidal ratio of 40% or higher and lower than 70%) | 5 (Herbicidal ratio of 90% or more (almost completely withered)) | 5 (Herbicidal ratio of 90% or more (almost completely withered)) | 5 (Herbicidal ratio of 90% or more (almost completely withered)) | 0 (Herbicidal ratio of 5% or lower (almost no effect)) | 5 (Herbicidal ratio of 90% or more (almost completely withered)) | 1 (Herbicidal ratio of 5% or higher and lower than 20%) | 2 (Herbicidal ratio of 20% or higher and lower than 40%) | 5 (Herbicidal ratio of 90% or more (almost completely withered)) | 5 (Herbicidal ratio of 90% or more (almost completely withered)) | 5 (Herbicidal ratio of 90% or more (almost completely withered)) | 5 (Herbicidal ratio of 90% or more (almost completely withered)) | 5 (Herbicidal ratio of 90% or more (almost completely withered)) |
| CC(CC1CC(O)=C(c2c(C)cc(C)cc2C)C1=O)=NOC1CCCC1 (stereo not drawn) [1-106] | 0 (Herbicidal ratio of 5% or lower (almost no effect)) | 0 (Herbicidal ratio of 5% or lower (almost no effect)) | 5 (Herbicidal ratio of 90% or more (almost completely withered)) | 3 (Herbicidal ratio of 40% or higher and lower than 70%) | 5 (Herbicidal ratio of 90% or more (almost completely withered)) | 5 (Herbicidal ratio of 90% or more (almost completely withered)) | 0 (Herbicidal ratio of 5% or lower (almost no effect)) | 3 (Herbicidal ratio of 40% or higher and lower than 70%) | 5 (Herbicidal ratio of 90% or more (almost completely withered)) | 5 (Herbicidal ratio of 90% or more (almost completely withered)) | 5 (Herbicidal ratio of 90% or more (almost completely withered)) | 0 (Herbicidal ratio of 5% or lower (almost no effect)) | 5 (Herbicidal ratio of 90% or more (almost completely withered)) | 2 (Herbicidal ratio of 20% or higher and lower than 40%) | 2 (Herbicidal ratio of 20% or higher and lower than 40%) | 5 (Herbicidal ratio of 90% or more (almost completely withered)) | 5 (Herbicidal ratio of 90% or more (almost completely withered)) | 5 (Herbicidal ratio of 90% or more (almost completely withered)) | 5 (Herbicidal ratio of 90% or more (almost completely withered)) | 5 (Herbicidal ratio of 90% or more (almost completely withered)) |
